Assay results: PubChem BioAssay (NCI)
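Five concentrations, 48 hours, 96-well plates. Abbreviation: GI50, concentration required for 50% inhibition of growth. Definition used: TGI = concentration required for complete inhibition of growth.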 Where a SMILES comes first, the peptide text is derived from it. The star is where a group is joined. Fmoc = O=C(OCC1c2ccccc2-c2ccccc21)*; OBn = c1ccc(CO*)cc1; tBu = CC(C)(C)*

Legend:
Test in all cases: growth of human tumour cells (NCI), 48 h
PC-3 prostate = system: PC-3 prostate
MCF7 breast = system: MCF7 breast
UACC-257 melanoma = system: UACC-257 melanoma
CAKI-1 renal = system: CAKI-1 renal
MALME-3M melanoma = system: MALME-3M melanoma
MDA-N = system: MDA-N
NCI-H23 lung = system: NCI-H23 lung
RPMI-8226 leukemia = system: RPMI-8226 leukemia
IGROV1 ovarian = system: IGROV1 ovarian
SK-OV-3 ovarian = system: SK-OV-3 ovarian

Row | SMILES | TGI (PC-3 prostate) [µM] | TGI (MCF7 breast) [µM] | TGI (UACC-257 melanoma) [µM] | TGI (CAKI-1 renal) [µM] | TGI (MALME-3M melanoma) [µM] | TGI (MDA-N) [µM] | TGI (NCI-H23 lung) [µM] | TGI (RPMI-8226 leukemia) [µM] | TGI (IGROV1 ovarian) [µM] | TGI (SK-OV-3 ovarian) [µM] | GI50 (RPMI-8226 leukemia) [µM]
1 | CC1CC[C@@]2(OC1)OC1C[C@H]3[C@@H]4CC=C5C[C@@H](OC6OC(CO)C(OC7OC(CO)C(O)C(O)C7O)C(O)C6OC6OC(C)C(O)C(O)C6O)CC[C@]5(C)[C@H]4CC[C@]3(C)C1[C@@H]2C (stereo partly specified) | 0.93 | 1.36 | 1.02 | 2.71 | 1.33 | 2.34 | 2.57 | 1.33 | 1.02 | 6.96 | 
2 | CSC1=C(C)C(/C=N/Nc2ccc([N+](=O)[O-])cc2)=C(C)N(c2ccccc2)S1(=O)=O | > 100 | > 100 | > 100 | > 100 | > 100 | > 100 | > 100 | > 100 | > 100 | > 100 | 
3 | O=c1c2ccccc2n2nnc3ccc(NCCNCCO)c1c32 | 4.89 | 14.9 | 12.3 | 10 | 7.84 | 10.3 | 8.85 | 13.7 | 15.6 | 16.5 | 
4 | COC(=O)[C@]1(c2cc3ccccc3[nH]2)CC2CNC1C1OC(C)(C)OC21 (stereo partly specified) | > 100 | > 100 | > 100 | > 100 | > 100 | > 100 | > 100 | > 100 | > 100 | > 100 | 
5 | CN(CC(=O)O)c1ncc2c(n1)-c1ccccc1CC2 | > 100 | > 100 | > 100 | > 100 | > 100 | > 100 | > 100 | > 100 | > 100 | > 100 | 
6 | CCOC(=O)NC(Nc1ccc(C(=O)O)cc1)(C(F)(F)F)C(F)(F)F | > 100 | > 100 | > 100 | > 100 | > 100 | > 100 | > 100 | > 100 | > 100 | > 100 | 
7 | Cc1c(-c2ccccc2)oc(=O)c2ccccc12 | 72.1 | > 100 | 30.7 | 53.9 | 52.8 | 59.3 | 56.6 | 36.5 | 46.6 | 54.4 | 
8 | O=C(Nc1nnc(-c2ccccc2)o1)C(SC(=S)N1CCCC1)c1ccccc1 (stereo unspecified) | > 100 | > 100 | > 100 | > 100 | > 100 | > 100 | 79.7 | > 100 | > 100 | > 100 | 
9 | C=C(CCC(=O)N(CCc1c[nH]c2ccccc12)C(=O)c1ccccc1CSCC)C(=O)OC | > 100 | > 100 | > 100 | > 100 | > 100 | > 100 | > 100 | > 100 | > 100 | > 100 | 
10 | CCOC(=O)c1c(-c2ccc(Cl)cc2)c(C#N)c(=S)n(C2OC(COC(C)=O)C(OC(C)=O)C(OC(C)=O)C2OC(C)=O)c1C (stereo unspecified) | > 100 | > 100 | > 100 | > 100 | > 100 | > 100 | > 100 | > 100 | > 100 | > 100 | 36.1
11 | FC(F)(Sc1ncccn1)c1nc2ccccc2o1 | > 100 | > 100 | > 100 | > 100 | > 100 | > 100 | > 100 | > 100 | > 100 | > 100 | 
12 | CN=C1C=C(/N=C2/C=C(N/C(=C\C#N)C(C)(C)O)OC2(C)C)OC1(C)C | > 100 | > 100 | > 100 | > 67.1 | > 100 | > 100 | > 100 | > 69.6 | > 72.5 | > 73.6 | 
13 | CN1CCN(Cc2ccc(C(=S)Nc3ccccc3)s2)CC1 | > 100 | > 100 | > 100 | > 100 | > 100 | > 100 | 61.8 | > 100 | 75.8 | > 100 | 
14 | CCOC(=O)/C=C(/OCC)[C@@H]1C(C(=O)c2ccc(Cl)cc2)[C@@H]1/C(=C\C(=O)OCC)OCC (stereo partly specified) | > 100 | > 100 | > 100 | > 100 | > 100 | > 100 | 81.8 | > 23.1 | > 100 | > 100 | 
15 | C[C@]12CC[C@H]3[C@@H](CCC4=C/C(=N/OCCN5CCCCC5)CC[C@@]43C)[C@@H]1CC[C@@H]2O | 45.6 | 26.8 | 37.3 | 55.3 | 33.7 | 34.5 | 30.4 | 24.9 | > 100 | 30.3 | 
16 | O=C(CN1CCCC1)Nc1ccc2c(c1)C1Oc3ccccc3CC1CO2 (stereo unspecified) | 68.3 | 32.4 | 44.3 | > 100 | 33.4 | 88.2 | > 100 | 78.9 | > 100 | > 100 | 

Row | SMILES | TGI (PC-3 prostate) [µM] | TGI (MCF7 breast) [µM] | TGI (UACC-257 melanoma) [µM] | TGI (CAKI-1 renal) [µM] | TGI (MALME-3M melanoma) [µM] | TGI (MDA-N) [µM] | TGI (NCI-H23 lung) [µM] | TGI (RPMI-8226 leukemia) [µM] | TGI (IGROV1 ovarian) [µM] | TGI (SK-OV-3 ovarian) [µM] | GI50 (RPMI-8226 leukemia) [µM]
17 | Cn1c(COC(=O)NC2CCCCC2)c(COC(=O)NC2CCCCC2)c2ccc3ccccc3c21 | > 100 | > 100 | > 100 | 70.6 | > 100 | > 100 | 71.6 | > 100 | > 100 | > 100 | 
18 | CC(OC(C)(C)C)C(NC(=O)OCC1c2ccccc2-c2ccccc21)C(=O)NC(Cc1ccccc1)C(=O)OCc1ccccc1 (stereo unspecified) (Fmoc-Thr(tBu)-Phe-OBn; configuration not given here) | > 100 | > 100 | > 100 | > 100 | > 100 | > 100 | > 100 | > 100 | > 100 | > 100 | 
19 | COC1=C(OC)C(=O)C(Cc2c(-c3ccccc3)nc3sc(Cl)cn23)=C(C)C1=O | 33.3 | 52.4 | 29.9 | 50.3 | 33.2 | 34.2 | 35.8 | 34.9 | 29.9 | 37.8 | 
20 | O=[N+]([O-])C(/C=C(\Cl)[N+](=O)[O-])=C(Nc1ccccc1)Nc1ccccc1 | 28.8 | 14.6 | 27.1 | 26.8 | 21 | 18.7 | 23.2 | 6.35 | 31 | 34.5 | 
21 | COc1cc(-c2cc(OC)c(OC)c3ccc(Br)cc23)c2cc(Br)ccc2c1OC | 58 | 85.7 | 92.1 | > 100 | 52.9 | 42.7 | 45 | 51.7 | 85.3 | 71.8 | 
22 | CCOC(=O)NCC(=O)NCC(=O)NCC(N)=O | > 100 | > 100 | > 100 | > 100 | > 100 | > 100 | > 100 | > 100 | > 100 | > 100 | 
23 | COc1ccc(Nc2nc(N)c(C(=O)c3ccco3)s2)cc1 | > 100 | > 100 | > 100 | > 100 | > 100 | > 100 | > 100 | > 85.4 | > 100 | > 100 | 
24 | CC[P+](c1ccccc1)(N(C)C)N(C)C | > 100 | > 100 | > 100 | > 100 | > 100 | > 100 | > 100 | > 100 | > 100 | > 100 | 
25 | Nc1ccc2c3c1cccc3c(=O)n1c3ccc(Cc4ccc5c(c4)nc4c6ccc(N)c7cccc(c(=O)n54)c76)cc3nc21 | > 100 | > 100 | > 100 | > 100 | > 100 | > 100 | > 100 | > 100 | > 100 | > 100 | 
26 | Cc1cc(C)nc(NS(=O)(=O)c2ccc(NC(=O)c3ccc4nc5ccccc5c(Nc5ccc(S(=O)(=O)N=C(N)N)cc5)c4c3)cc2)n1 | > 100 | > 100 | > 100 | > 100 | > 100 | > 100 | > 100 | > 100 | > 100 | > 100 | 
27 | CCOC(=O)C(NC(=O)c1ccccc1)(Nc1ccc(S(=O)(=O)Nc2cc(C)on2)cc1)C(F)(F)F (stereo unspecified) | > 100 | > 100 | > 10 | > 100 | > 100 | > 100 | > 10 | > 100 | > 100 | > 100 | 
28 | COc1ccccc1-c1cc(=O)c2cccnc2[nH]1 | > 100 | > 100 | > 100 | > 100 | > 100 | 56.7 | > 100 | > 100 | > 100 | > 100 | 
29 | O=C(O)C1C2OC(C(Br)C2Br)C1C(=O)O (stereo unspecified) | > 100 | > 100 | > 100 | > 100 | > 100 | > 100 | > 100 | > 100 | > 100 | > 100 | 
30 | CC(=O)N1CN2C(=O)CCC2c2cc(C)ccc21 (stereo unspecified) | > 100 | > 100 | > 100 | > 100 | > 100 | > 100 | > 100 | > 100 | > 100 | > 100 | 
31 | CCOc1ccc(Nc2nc(N)nc(N)c2N=O)cc1 | > 100 | > 100 | > 100 | 38.5 | > 100 | > 100 | > 100 | > 100 | 33.4 | > 100 | 
